For orientation: EC50 means the concentration that produces a half-maximal response.

Experiment [1] has as its system A/New York/18/2009 (H1N1). In words: microbe, parasite or virus in culture. The experiment is classed as cell-based. To be noted: Influenza A virus, H1N1, MDCK; read-out: Cell Protection Assay EC50 ± SD.
Experiment [2] concerns A/Cambodia/0371/2007 (H1N1). As to the kind of experiment: microbe, parasite or virus in culture. The note with it: Influenza A virus, MDCK, read-out: Cell Protection Assay EC50 ± SD. It is filed as cell-based.

For the compound `O=C(O)[C@H]1C2CCC(CC2)C1Nc1nc(-c2c[nH]c3ncc(F)cc23)ncc1F` (some centres unmarked) [Compound (1)], the EC50 in experiment [1] stood at 0.59 nM; in experiment [2] it was 0.61 ± 0.33 nM.

(Values after US20160250213A1, “FORMULATIONS OF AZAINDOLE COMPOUNDS” (priority 2013, published 2016).)
